According to ChEMBL document CHEMBL5465560, “Selectivity Literature for EUbOPEN Chemogenomic Library” (2024):
Values belong to the compound of their own block, whether it stands above or below them.

What was measured:
[1] = target: T1, Ephrin type-B receptor 1 (Homo sapiens) (UniProt P54762); test: Selectivity interaction (KinomeScan (DiscoverX)) EUB0001049a EPHB1; conditions: at 1 µM
T1 sequence (whole entry): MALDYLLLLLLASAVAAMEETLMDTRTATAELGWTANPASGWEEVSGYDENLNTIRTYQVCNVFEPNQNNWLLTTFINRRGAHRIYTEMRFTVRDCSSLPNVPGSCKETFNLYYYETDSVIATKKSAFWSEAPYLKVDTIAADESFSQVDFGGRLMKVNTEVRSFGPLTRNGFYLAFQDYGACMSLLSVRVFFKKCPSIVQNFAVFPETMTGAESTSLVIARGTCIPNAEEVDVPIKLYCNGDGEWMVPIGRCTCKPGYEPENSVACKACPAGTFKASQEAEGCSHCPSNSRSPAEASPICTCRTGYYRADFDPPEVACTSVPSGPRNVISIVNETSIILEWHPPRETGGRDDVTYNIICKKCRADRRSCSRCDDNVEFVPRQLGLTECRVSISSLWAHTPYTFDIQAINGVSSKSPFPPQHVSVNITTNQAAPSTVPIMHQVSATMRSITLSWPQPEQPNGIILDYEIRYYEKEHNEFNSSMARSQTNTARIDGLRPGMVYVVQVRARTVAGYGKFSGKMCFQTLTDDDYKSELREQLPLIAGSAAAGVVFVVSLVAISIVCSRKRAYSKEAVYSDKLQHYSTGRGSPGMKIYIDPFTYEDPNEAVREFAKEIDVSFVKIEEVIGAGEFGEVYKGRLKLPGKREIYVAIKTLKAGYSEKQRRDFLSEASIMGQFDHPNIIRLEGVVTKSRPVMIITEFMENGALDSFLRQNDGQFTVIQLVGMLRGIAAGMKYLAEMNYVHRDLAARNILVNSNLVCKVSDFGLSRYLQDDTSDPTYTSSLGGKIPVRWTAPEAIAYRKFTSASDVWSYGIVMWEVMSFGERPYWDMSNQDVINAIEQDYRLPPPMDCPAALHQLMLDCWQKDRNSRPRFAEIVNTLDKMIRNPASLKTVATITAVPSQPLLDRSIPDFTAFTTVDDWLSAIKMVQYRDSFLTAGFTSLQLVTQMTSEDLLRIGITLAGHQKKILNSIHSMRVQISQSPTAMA

[2] = target: Serine/threonine-protein kinase N2 (Homo sapiens, UniProt Q16513); test: Selectivity interaction (Ambit KINOMEscan and KiNATiv profiling in Jurkat cells) EUB0000090b PKN2; type: cell-based; conditions: at 1 µM
[3] = target: T2, Kinase suppressor of Ras 2 (Homo sapiens) (UniProt Q6VAB6); test: Selectivity interaction (Kinase panel (Z-LYTE Assay)) EUB0001632a KSR2; conditions: at 10 µM
T2 sequence (whole entry): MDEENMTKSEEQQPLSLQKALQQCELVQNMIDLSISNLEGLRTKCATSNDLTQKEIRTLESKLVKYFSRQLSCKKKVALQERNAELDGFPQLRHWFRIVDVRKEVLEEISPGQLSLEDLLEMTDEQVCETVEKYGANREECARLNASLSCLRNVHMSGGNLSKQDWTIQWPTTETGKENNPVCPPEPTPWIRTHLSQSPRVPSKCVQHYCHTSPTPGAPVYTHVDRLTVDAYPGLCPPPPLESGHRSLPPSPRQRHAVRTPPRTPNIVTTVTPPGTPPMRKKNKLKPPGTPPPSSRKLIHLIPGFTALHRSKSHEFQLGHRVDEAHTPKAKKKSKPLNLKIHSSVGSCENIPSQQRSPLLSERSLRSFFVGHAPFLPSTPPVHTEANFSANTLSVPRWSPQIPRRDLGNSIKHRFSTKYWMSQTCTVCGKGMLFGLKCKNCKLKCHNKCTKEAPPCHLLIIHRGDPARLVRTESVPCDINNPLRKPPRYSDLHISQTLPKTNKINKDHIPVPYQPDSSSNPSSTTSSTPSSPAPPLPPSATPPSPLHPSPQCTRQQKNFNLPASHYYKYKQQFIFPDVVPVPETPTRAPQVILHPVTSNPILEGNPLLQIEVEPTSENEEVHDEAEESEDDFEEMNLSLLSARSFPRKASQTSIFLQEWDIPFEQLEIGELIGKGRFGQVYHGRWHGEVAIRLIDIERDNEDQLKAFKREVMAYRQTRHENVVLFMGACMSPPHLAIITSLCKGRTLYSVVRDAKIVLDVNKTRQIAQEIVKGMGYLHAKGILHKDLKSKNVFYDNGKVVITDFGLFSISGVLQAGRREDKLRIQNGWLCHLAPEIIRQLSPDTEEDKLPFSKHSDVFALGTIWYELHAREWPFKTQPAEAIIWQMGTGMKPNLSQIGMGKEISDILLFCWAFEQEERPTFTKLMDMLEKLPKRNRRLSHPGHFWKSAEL

Nischarin (Homo sapiens) = Nischarin (Homo sapiens) (UniProt Q9Y2I1); test: Selectivity interaction (Eurofins CEREP Diversity Profile (receptors and ion channels)) EUB0000279b NISCH; conditions: at 10 µM
[4] = target: Beta-2 adrenergic receptor (Homo sapiens, UniProt P07550); test: Selectivity interaction (GPCR panel (PDSP screen)) EUB0001079a ADRB2; conditions: at 10 µM
[5] = target: Serine/threonine-protein kinase RIO2 (Homo sapiens) (UniProt Q9BVS4); test: Selectivity interaction (KinomeScan (DiscoverX)) EUB0001619a RIOK2; conditions: at 1 µM
[6] = target: Serine/threonine-protein kinase PAK 1 (Homo sapiens) (UniProt Q13153); test: Selectivity interaction (KinomeScan (DiscoverX)) EUB0000607a PAK1; conditions: at 10 µM
[7] = target: Mitogen-activated protein kinase 1 (Homo sapiens, UniProt P28482); test: Selectivity interaction (Kinase panel (KiNativ target engagement assay in Jurkat cells)) EUB0001635a MAPK1; type: cell-based; conditions: Selectivity number of off-targets 0.0, Selectivity number of targets 233.0, Source Knowledge https://www.sciencedirect.com/science/article/pii/S2451945619300674?via%3Dihub, at 1 µM
Sequence of Mitogen-activated protein kinase 1 (P28482 whole entry): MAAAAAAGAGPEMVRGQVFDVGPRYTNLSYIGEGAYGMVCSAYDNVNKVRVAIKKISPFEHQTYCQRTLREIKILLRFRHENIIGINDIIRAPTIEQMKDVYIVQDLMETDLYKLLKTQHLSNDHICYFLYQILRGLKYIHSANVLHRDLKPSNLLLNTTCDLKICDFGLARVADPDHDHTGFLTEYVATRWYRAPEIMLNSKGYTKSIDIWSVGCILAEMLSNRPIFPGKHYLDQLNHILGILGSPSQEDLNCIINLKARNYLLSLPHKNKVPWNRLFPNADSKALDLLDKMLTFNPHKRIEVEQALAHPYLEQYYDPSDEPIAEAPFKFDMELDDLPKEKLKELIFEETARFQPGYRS

Sequence of Beta-2 adrenergic receptor (P07550 whole entry, looked up): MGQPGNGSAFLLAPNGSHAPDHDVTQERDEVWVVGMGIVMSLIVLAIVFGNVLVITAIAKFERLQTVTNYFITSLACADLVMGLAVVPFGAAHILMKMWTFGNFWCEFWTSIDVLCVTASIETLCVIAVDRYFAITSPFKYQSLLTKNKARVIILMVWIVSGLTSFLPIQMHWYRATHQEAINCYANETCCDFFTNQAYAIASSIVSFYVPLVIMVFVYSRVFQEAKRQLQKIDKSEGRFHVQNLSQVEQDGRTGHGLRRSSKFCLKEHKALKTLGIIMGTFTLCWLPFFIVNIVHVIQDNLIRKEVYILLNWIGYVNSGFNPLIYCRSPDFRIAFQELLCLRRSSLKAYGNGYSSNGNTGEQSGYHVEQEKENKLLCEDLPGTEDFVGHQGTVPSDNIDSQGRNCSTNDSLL
Sequence of Serine/threonine-protein kinase N2 (Q16513 whole entry, looked up): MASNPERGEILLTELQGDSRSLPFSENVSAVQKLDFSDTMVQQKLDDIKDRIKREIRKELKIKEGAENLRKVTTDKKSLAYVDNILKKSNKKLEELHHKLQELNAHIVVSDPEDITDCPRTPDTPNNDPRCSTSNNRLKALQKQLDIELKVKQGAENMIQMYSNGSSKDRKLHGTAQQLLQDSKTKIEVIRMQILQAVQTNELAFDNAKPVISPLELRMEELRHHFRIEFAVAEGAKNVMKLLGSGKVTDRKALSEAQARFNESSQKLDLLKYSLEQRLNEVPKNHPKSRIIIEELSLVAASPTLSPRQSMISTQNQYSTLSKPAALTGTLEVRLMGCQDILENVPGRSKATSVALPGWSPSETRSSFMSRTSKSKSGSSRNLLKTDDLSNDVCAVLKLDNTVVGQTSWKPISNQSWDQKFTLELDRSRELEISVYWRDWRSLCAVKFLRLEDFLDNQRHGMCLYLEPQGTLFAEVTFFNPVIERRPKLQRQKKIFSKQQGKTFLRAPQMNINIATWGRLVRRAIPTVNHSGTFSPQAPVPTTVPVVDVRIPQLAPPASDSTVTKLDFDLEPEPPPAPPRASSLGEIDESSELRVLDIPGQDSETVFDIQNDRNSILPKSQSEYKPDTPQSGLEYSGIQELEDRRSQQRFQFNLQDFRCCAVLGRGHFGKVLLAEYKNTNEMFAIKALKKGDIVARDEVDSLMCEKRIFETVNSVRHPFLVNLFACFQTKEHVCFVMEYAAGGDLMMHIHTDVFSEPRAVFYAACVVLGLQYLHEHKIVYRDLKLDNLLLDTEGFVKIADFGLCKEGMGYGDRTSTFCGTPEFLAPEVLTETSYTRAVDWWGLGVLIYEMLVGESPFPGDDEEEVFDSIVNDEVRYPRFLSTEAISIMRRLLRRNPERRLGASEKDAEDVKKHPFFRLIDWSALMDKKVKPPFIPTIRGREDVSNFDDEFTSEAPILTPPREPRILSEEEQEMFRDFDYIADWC
Sequence of Serine/threonine-protein kinase PAK 1 (Homo sapiens) (Q13153 whole entry): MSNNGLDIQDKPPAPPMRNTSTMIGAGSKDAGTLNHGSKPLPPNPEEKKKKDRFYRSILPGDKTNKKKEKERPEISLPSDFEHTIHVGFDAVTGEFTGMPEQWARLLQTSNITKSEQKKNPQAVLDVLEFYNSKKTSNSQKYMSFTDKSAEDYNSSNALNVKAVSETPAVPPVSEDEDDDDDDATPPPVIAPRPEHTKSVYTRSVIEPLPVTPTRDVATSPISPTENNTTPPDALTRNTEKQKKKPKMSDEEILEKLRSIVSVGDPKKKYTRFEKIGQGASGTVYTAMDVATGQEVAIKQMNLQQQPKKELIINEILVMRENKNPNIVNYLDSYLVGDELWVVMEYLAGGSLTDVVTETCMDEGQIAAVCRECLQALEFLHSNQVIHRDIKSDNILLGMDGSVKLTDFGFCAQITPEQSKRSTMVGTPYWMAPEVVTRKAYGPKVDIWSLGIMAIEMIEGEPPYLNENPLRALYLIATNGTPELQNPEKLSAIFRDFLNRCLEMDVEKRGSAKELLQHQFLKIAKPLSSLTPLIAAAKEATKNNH
Sequence of Serine/threonine-protein kinase RIO2 (Homo sapiens) (Q9BVS4 whole entry, looked up): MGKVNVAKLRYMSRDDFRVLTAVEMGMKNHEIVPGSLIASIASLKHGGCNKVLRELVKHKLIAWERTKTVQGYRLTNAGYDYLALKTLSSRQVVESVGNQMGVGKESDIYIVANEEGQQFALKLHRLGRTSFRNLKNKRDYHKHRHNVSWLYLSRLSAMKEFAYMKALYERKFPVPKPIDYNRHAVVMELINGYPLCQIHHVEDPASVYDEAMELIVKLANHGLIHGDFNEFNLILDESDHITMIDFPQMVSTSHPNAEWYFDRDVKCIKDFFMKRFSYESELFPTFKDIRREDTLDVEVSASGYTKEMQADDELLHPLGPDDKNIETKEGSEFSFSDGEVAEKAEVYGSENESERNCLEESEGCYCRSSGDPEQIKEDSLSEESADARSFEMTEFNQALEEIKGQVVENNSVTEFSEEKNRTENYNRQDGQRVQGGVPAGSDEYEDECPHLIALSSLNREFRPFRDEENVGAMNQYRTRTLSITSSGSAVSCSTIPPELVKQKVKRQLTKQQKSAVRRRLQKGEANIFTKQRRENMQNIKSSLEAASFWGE
Sequence of Nischarin (Homo sapiens) (Q9Y2I1 whole entry): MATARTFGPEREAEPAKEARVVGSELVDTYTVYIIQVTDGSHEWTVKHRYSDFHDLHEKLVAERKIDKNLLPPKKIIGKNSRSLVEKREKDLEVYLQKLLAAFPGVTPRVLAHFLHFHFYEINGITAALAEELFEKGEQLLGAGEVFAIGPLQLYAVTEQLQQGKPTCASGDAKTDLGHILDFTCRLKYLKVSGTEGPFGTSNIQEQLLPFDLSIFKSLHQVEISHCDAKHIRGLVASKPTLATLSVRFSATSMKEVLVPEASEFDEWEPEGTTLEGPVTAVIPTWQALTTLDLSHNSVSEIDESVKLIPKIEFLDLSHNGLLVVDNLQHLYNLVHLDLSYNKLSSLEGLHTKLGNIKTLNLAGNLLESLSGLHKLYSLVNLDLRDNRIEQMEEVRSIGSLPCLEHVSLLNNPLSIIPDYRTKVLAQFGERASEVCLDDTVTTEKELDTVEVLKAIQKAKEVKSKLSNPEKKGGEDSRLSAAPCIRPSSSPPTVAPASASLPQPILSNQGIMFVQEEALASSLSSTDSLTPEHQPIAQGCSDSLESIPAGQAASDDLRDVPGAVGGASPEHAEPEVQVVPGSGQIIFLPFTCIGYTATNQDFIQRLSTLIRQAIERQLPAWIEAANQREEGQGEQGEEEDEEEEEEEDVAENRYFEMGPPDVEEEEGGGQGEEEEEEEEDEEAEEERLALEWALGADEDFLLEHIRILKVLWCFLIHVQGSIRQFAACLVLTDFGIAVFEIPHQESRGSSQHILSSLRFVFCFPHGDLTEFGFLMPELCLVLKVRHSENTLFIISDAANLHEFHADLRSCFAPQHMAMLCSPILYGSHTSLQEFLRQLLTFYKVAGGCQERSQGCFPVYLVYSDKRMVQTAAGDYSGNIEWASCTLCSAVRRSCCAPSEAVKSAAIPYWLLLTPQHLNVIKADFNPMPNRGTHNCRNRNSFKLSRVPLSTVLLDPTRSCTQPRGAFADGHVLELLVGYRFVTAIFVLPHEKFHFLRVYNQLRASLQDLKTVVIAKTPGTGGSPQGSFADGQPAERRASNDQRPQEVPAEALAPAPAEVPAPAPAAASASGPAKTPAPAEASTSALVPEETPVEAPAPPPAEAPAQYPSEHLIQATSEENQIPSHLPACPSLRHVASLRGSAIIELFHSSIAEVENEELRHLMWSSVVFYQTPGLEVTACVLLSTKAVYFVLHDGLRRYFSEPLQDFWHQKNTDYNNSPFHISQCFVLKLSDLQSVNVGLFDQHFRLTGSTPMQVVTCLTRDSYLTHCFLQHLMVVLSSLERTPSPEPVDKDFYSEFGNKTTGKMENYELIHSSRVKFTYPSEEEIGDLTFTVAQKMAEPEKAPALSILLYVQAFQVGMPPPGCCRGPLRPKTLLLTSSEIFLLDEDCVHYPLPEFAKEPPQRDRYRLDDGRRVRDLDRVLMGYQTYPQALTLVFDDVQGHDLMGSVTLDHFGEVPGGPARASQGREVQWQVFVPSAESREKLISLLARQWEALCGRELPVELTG

Structure (SMILES): COc1cc(Nc2nc(C)cc(-c3cnn4nc(OC)ccc34)n2)cc(C(F)(F)F)c1
% of control [1]: 85%

Structure (SMILES): CN(C)C/C=C/C(=O)Nc1ccc(C(=O)N2CCCC(Nc3ncc(Cl)c(-c4c[nH]c5ccccc45)n3)C2)cc1 (stereo not drawn)
% of control [2]: 98%

% of control [3]: 1.65%
Structure (SMILES): Cn1cc(-n2cnc3c(NCc4nc5cc(Cl)c(Cl)cc5[nH]4)nc(N4CCOCC4)nc32)cn1

% of control (Nischarin (Homo sapiens)): 87%
Structure (SMILES): CC(=O)c1cc(-c2ccccc2OCC2CC2)c2ncccn12

Structure (SMILES): Nc1cnc(N2CCc3cc(S(=O)(=O)Nc4c(F)cc(Cl)cc4F)cc(N4CCCC4=O)c32)nc1 [TP-020n]
% of inhibition [4]: -3.08%

Structure (SMILES): N#Cc1cccc(-c2c[nH]c3ncnc(N4CCOCC4)c23)c1
% of control [5]: 75%

Structure (SMILES): CNC(=O)Nc1ccc(-c2nc(N3CC4CCC(C3)O4)c3cnn(C4CCC5(CC4)OCCO5)c3n2)cc1
% of control [6]: 100%

Structure (SMILES): C=CC(=O)Nc1ccc(C(=O)Nc2[nH]nc3c2CN(C(=O)N[C@H](CN(C)C)c2ccccc2)C3(C)C)cc1
% of engagement [7]: 0.4%
